Results on seven molecules are retold here after US20250333381A1, “SOLID STATE FORMS” (AMGEN INC., priority 2024, published 2025).

≈ marks a conversion by molar mass, not a printed value. Entries after “also recorded” stand apart in the source; their conditions may differ. Structures can show the parent of a compound that is named as a salt.

Data set [1] concerns C3G patients. The note with it: compared to placebo, 26 weeks of blinded treatment; cited from earlier work.
In data set [2] the test system is HS patients. Conditions: vs. placebo, pre-specified Hurley Stage III (severe HS) patients, 12 weeks; cited from earlier work.
Data set [3] is described as follows: Solubility in FaSSIF (shake 2 hr, HPLC). Conditions: for Solubility: 2 h. The format is physicochemical. As to the method:
Solubility: Samples were prepared by adding ˜10 mg of the solid to a small centrifuge tube followed by the addition of 1.75 mL freshly prepared FaSSIF solution. The pH of each suspension was measured prior to shaking the samples in an Eppendorf ThermoMixer F1.5 at 37° C. and 1500 rpm for 2 hr. The samples were centrifuged, and the pH of each suspension was measured again at the T=2 hr timepoint. The samples were filtered through Millex 0.20 μm PTFE syringe filters and the filtrates were diluted by a factor of 2 with acetonitrile. Solubility samples were prepared in duplicate. […] The samples were analyzed by HPLC using the method parameters described in the table below. [table] […] The samples were analyzed by HPLC using the method parameters described in the table below. [table]

Data set [4] in a line: Dynamic Vapor Sorption (DVS), hygroscopicity. Type of data set: physicochemical. Conditions: 25° C., 0% RH-90% RH-0% RH. The method, then: Dynamic Vapor Sorption (DVS): Water sorption data were collected using a DVS Adventure dynamic vapor sorption analyzer (Surface Measurement Systems). The relative humidity at 25° C. was calibrated against the deliquescence point of LiCl, Mg(NO3)2 and KCl. Approximately 5-15 mg were loaded onto a tared metal pan. Data were collected from 0 to 90 to 0% RH in 5% increments at 25° C. Progression to the next stage occurred when the change in mass with respect to time was less than 0.002 per minute or after 180 minutes, whichever occurred first. The minimum stage time was 10 minutes. [table]

Data set [5] can be described thus: Dissolution profiles, PION MicroDiss (FIG. 16). Type of data set: physicochemical. Conditions: FaSSIF + 0.2% Tween 80, ~37° C.; for Rate and extent of dissolution: compared to amorphous free base. As to the method:
Dissolution profiles were generated comparing the free base anhydrous crystalline form of Compound A, the amorphous free base form of Compound A, the crystalline HCl salt form of Compound A, and the crystalline HBr salt form of Compound A. The dissolution profiles were obtained by employing a PION MicroDiss profiler equipped with Rainbow […] 8-channel in-situ fiber optic UV-vis spectrometer, heating blocks and magnetic stirrers. Dissolution media was equilibrated at 37° C. using Thermo Neslab RTE 7 recirculating chiller prior to addition of samples. Calibration standards were prepared by serial dilution from a methanol stock solution at 12 levels spanning concentrations 0-38 μg/mL. Samples were analyzed simultaneously in duplicate using the parameters described in the table below. [table]

Data set [6] is described as follows: Solid form screen: thermodynamic stability and form conversion. Type of data set: physicochemical. Conditions: for Thermodynamic stability among crystalline forms: screening process of the HCl and HBr salts; for Form conversion upon heating: heating (under vacuum). As to the method:
A solid form screen of HCl and HBr salts of Compound A was conducted. Crystalline salt forms of Compound A were identified, including a crystalline HCl salt form, a crystalline toluene solvate of a crystalline HCl salt form (also referred to herein an HCl salt toluene solvate form of Compound A), a crystalline HBr salt form, a crystalline toluene solvate of a crystalline HBr salt form (also referred to herein an HBr salt toluene solvate form of Compound A). Amorphous salt forms of Compound A were also identified, including an amorphous HCl salt form and an amorphous HBr salt form.
Further, the DV S data of both crystalline HCl and HBr salts form of Compound A indicate that these two materials are non-hygroscopic.

Data set [7] can be described thus: Dissolution profiles vs Napsylate, Tosylate, Besylate salt forms (FIGS. 35(a), 35(b)). The note with it: for Cmax of dissolution profile: Besylate salts. Type of data set: physicochemical. The source says: FIGS. 35(a) and 35(b) show dissolution profiles of crystalline HCl Form 1 of Compound A of this disclosure compared to Napsylate, Tosylate, and Besylate salt forms of Compound A. The concentrations of the salts used are roughly double in FIG. 35(b) than in FIG. 35(a).
FIGS. 35(a) and 35(b) show dissolution profiles of crystalline HCl Form 1 of Compound A of this disclosure compared to Napsylate, Tosylate, and Besylate salt forms of Compound A. Besylate, Tosylate Napsylate salt forms of Compound A were prepared as described in WO 2021/092295. The concentrations of the salts used are roughly double in FIG. 35(b) than in FIG. 35(a).

Regarding `Cc1ccc(NC(=O)[C@H]2CCCN(C(=O)c3c(C)cccc3F)[C@H]2c2ccc(NC3CCCC3)cc2)cc1C(F)(F)F` [Compound A, (2R,3S)-2-(4-(cyclopentylamino)phenyl)-1-(2-fluoro-6-methylbenzoyl)-N-(4-methyl-3-(trifluoromethyl)phenyl)piperidine-3-carboxamide], the “Renal function as measured by eGFR” value in data set [1] was “statistically significant improvement in renal function”. Further, the “HiSCR (Hidradenitis Suppurativa Clinical Response)” value in data set [2] is given as “statistically significant dose-dependent improvement in HiSCR”.

`Cc1ccc(NC(=O)[C@H]2CCCN(C(=O)c3c(C)cccc3F)[C@H]2c2ccc(NC3CCCC3)cc2)cc1C(F)(F)F` [Crystalline HBr salt form, (2R,3S)-2-(4-(cyclopentylamino)phenyl)-1-(2-fluoro-6-methylbenzoyl)-N-(4-methyl-3-(trifluoromethyl)phenyl)piperidine-3-carboxamide]: the “Solubility relative to Besylate, Tosylate and Napsylate forms” value in data set [3] was “significantly more soluble”. In addition, the “Hygroscopicity (DVS)” value in data set [4] is given as “non-hygroscopic”. The “Rate and extent of dissolution” value in data set [5] (listed as crystalline HBr salt form of Compound A) is “performed similar in terms of rate and extent of dissolution to the amorphous form of avacopan”. In data set [6], the “Thermodynamic stability among crystalline forms” value was “most thermodynamically stable crystalline forms identified in the screening process”.

With `Cc1ccc(NC(=O)[C@H]2CCCN(C(=O)c3c(C)cccc3F)[C@H]2c2ccc(NC3CCCC3)cc2)cc1C(F)(F)F` [Crystalline HCl salt form, (2R,3S)-2-(4-(cyclopentylamino)phenyl)-1-(2-fluoro-6-methylbenzoyl)-N-(4-methyl-3-(trifluoromethyl)phenyl)piperidine-3-carboxamide], the “Solubility relative to Besylate, Tosylate and Napsylate forms” value in data set [3] is given as “significantly more soluble”. Moreover, the “Hygroscopicity (DVS)” value in data set [4] is listed as “non-hygroscopic”. In data set [5] (listed as crystalline HCl salt form of Compound A), the “Rate and extent of dissolution” value was “follows very closely”. Moreover, the “Cmax of dissolution profile” value is given as “lesser Cmax” in data set [5] (compared to crystalline HBr salt and amorphous form); “highest Cmax of all salts” in data set [7] (FaSSGF+0.2% tween 80 (pH 1.2)); “highest Cmax of all salts” in data set [7] (FaSSIF+0.2% tween 80 (pH 6.5)). The “Tmax of dissolution profile” value in data set [7] (Besylate salt forms) is “higher than the Napsylate, Tosylate, and Besylate salt forms of Compound A”. Further, the “Thermodynamic stability among crystalline forms” value in data set [6] is reported as “most thermodynamically stable crystalline forms identified in the screening process”.

`Cc1ccc(NC(=O)[C@H]2CCCN(C(=O)c3c(C)cccc3F)[C@H]2c2ccc(NC3CCCC3)cc2)cc1C(F)(F)F` [Free Base Amorphous Form, (2R,3S)-2-(4-(cyclopentylamino)phenyl)-1-(2-fluoro-6-methylbenzoyl)-N-(4-methyl-3-(trifluoromethyl)phenyl)piperidine-3-carboxamide, reference compound] registered a Solubility in data set [3] of 19.44 µg/mL (≈ 33.4 µM).

Molecule `Cc1ccc(NC(=O)[C@H]2CCCN(C(=O)c3c(C)cccc3F)[C@H]2c2ccc(NC3CCCC3)cc2)cc1C(F)(F)F` [Free Base Anhydrous Crystalline Form, (2R,3S)-2-(4-(cyclopentylamino)phenyl)-1-(2-fluoro-6-methylbenzoyl)-N-(4-methyl-3-(trifluoromethyl)phenyl)piperidine-3-carboxamide, reference compound] had a Solubility in data set [3] of 1.71 µg/mL (≈ 2.94 µM).

As to `Cc1ccc(NC(=O)[C@H]2CCCN(C(=O)c3c(C)cccc3F)[C@H]2c2ccc(NC3CCCC3)cc2)cc1C(F)(F)F` [HBr salt toluene solvate form of Compound A] [(2R,3S)-2-(4-(cyclopentylamino)phenyl)-1-(2-fluoro-6-methylbenzoyl)-N-(4-methyl-3-(trifluoromethyl)phenyl)piperidine-3-carboxamide], the “Form conversion upon heating” value in data set [6] was “convert to the respective HBr and HCl crystalline salt forms of Compound A upon heating; also recorded: converts to the HCl crystalline salt form of Compound A upon heating under vacuum from about 100 °C to about 125 °C from about 4 to about 24 hours”.

Consider `Cc1ccc(NC(=O)[C@H]2CCCN(C(=O)c3c(C)cccc3F)[C@H]2c2ccc(NC3CCCC3)cc2)cc1C(F)(F)F` [HCl salt toluene solvate form of Compound A] [(2R,3S)-2-(4-(cyclopentylamino)phenyl)-1-(2-fluoro-6-methylbenzoyl)-N-(4-methyl-3-(trifluoromethyl)phenyl)piperidine-3-carboxamide], for which the “Form conversion upon heating” value in data set [6] is “convert to the respective HBr and HCl crystalline salt forms of Compound A upon heating; also recorded: converts to the HCl crystalline salt form of Compound A upon heating under vacuum at about 60 °C for about 2 hours”.

The term Solubility denotes how much of the substance goes into solution per volume.
